Results from ChEMBL document CHEMBL5380795, “Design, Synthesis, and Bioactivity Investigation of Cyclic Lipopeptide Antibiotics Containing Eight to Nine Amino Acids” (J Med Chem, 2023).
Values after ≈ are worked out from the molar mass of the structure shown. Active and inactive are the calls of the source. The rule behind the calls is not given here.

Tests used:
Escherichia coli [1] = experiment: Antibacterial activity against Escherichia coli NCTC 13353 assessed as inhibition of bacterial growth incubated for 18 to 24 hrs by broth microdilution method; assay type: functional; conditions: time 18-24 hrs
Pseudomonas aeruginosa [2] = experiment: Antibacterial activity against Pseudomonas aeruginosa ATCC 27853 assessed as inhibition of bacterial growth incubated for 18 to 24 hrs by broth microdilution method; assay type: functional; conditions: time 18-24 hrs
Escherichia coli [3] = experiment: Potentiation of rifampicin induced antibacterial activity in Escherichia coli ATCC 25922 assessed as rifampicin MIC at 1 ug/ml incubated for 18 to 24 hrs by broth microdilution method (reference value: 2 ug/ml); assay type: functional; conditions: dose 1 µg/ml, time 18-24 hrs
[4] = Acute toxicity in ICR mouse administered into tail vein and measured twice daily over 1 week; conditions: in vivo, route iv, time 1 weeks
Escherichia coli [5] = experiment: Potentiation of rifampicin induced antibacterial activity in Escherichia coli ATCC 25922 assessed as rifampicin MIC at 0.015 ug/ml incubated for 18 to 24 hrs by broth microdilution method (reference value: 2 ug/ml); assay type: functional; conditions: dose 0.015 µg/ml, time 18-24 hrs
Escherichia coli [6] = experiment: Potentiation of rifampicin induced antibacterial activity in Escherichia coli ATCC 25922 assessed as rifampicin MIC at 0.06 ug/ml incubated for 18 to 24 hrs by broth microdilution method (reference value: 2 ug/ml); assay type: functional; conditions: dose 0.06 µg/ml, time 18-24 hrs
Escherichia coli [7] = experiment: Antibacterial activity against Escherichia coli clinical isolate 19-2 assessed as inhibition of bacterial growth incubated for 18 to 24 hrs by broth microdilution method; assay type: functional; conditions: time 18-24 hrs
[8] = Acute toxicity in ICR mouse assessed as animal death at 16 mg/kg, iv administered into tail vein and measured after 0.5 to 1 mins; assay type: organism-based; conditions: in vivo, time 0.5-1 min
Pseudomonas aeruginosa [9] = experiment: Antibacterial activity against carbapenem resistant Pseudomonas aeruginosa clinical isolate 17-1 assessed as inhibition of bacterial growth incubated for 18 to 24 hrs by broth microdilution method; assay type: functional; conditions: time 18-24 hrs
Escherichia coli [10] = experiment: Bactericidal activity against Escherichia coli ATCC BAA-2523 assessed as bacterial count at 8 times MIC measured after 24 hrs by time-kill assay; assay type: functional, organism-based
Escherichia coli [11] = experiment: Bactericidal activity against Escherichia coli ATCC BAA-2523 assessed as log reduction in bacterial count by measuring reduction in CFU/ml at 4 times MIC measured after 24 hrs by time-kill assay; assay type: functional
Lipopolysaccharide (LPS) = experiment: Binding affinity to LIP-1 sensor chip immobilized Escherichia coli LPS assessed as dissociation constant measured for 600 secs by SPR analysis
[12] = Half life in overnight fasted Sprague-Dawley rat at 4 mg/kg, ip measured for 24 hrs by LC-MS/MS analysis; assay type: ADME, organism-based; conditions: in vivo
Escherichia coli [13] = experiment: Potentiation of rifampicin induced antibacterial activity in Escherichia coli ATCC 25922 assessed as rifampicin MIC at 0.03 ug/ml incubated for 18 to 24 hrs by broth microdilution method (reference value: 2 ug/ml); assay type: functional; conditions: dose 0.03 µg/ml, time 18-24 hrs
Klebsiella pneumoniae [14] = experiment: Antibacterial activity against carbapenem resistant Klebsiella pneumoniae clinical isolate 19-15 assessed as inhibition of bacterial growth incubated for 18 to 24 hrs by broth microdilution method; assay type: functional; conditions: time 18-24 hrs
Escherichia coli [15] = experiment: Antibacterial activity against Escherichia coli ATCC 25922 assessed as inhibition of bacterial growth incubated for 18 to 24 hrs by broth microdilution method; assay type: functional; conditions: time 18-24 hrs
Escherichia coli [16] = experiment: Potentiation of rifampicin induced antibacterial activity in Escherichia coli ATCC 25922 assessed as rifampicin MIC at 2 ug/ml incubated for 18 to 24 hrs by broth microdilution method (reference value: 2 ug/ml); assay type: functional; conditions: dose 2 µg/ml, time 18-24 hrs
Escherichia coli [17] = experiment: Antibacterial activity against Escherichia coli ATCC BAA-2523 infected in ICR mouse assessed as mouse survival at 4 to 8 mg/kg, iv administered into tail vein and measured daily for 7 days; assay type: functional, organism-based; conditions: dose 4-8 mg/kg, time 7.0 day
Staphylococcus aureus [18] = experiment: Antibacterial activity against methicillin resistant Staphylococcus aureus ATCC 33591 assessed as inhibition of bacterial growth incubated for 18 to 24 hrs by broth microdilution method; assay type: functional; conditions: time 18-24 hrs
Klebsiella pneumoniae [19] = experiment: Antibacterial activity against KPC producing Klebsiella pneumoniae ATCC BAA-1705 assessed as inhibition of bacterial growth incubated for 18 to 24 hrs by broth microdilution method; assay type: functional; conditions: time 18-24 hrs
Staphylococcus aureus [20] = experiment: Antibacterial activity against Staphylococcus aureus ATCC 29213 assessed as inhibition of bacterial growth incubated for 18 to 24 hrs by broth microdilution method; assay type: functional; conditions: time 18-24 hrs
[21] = Acute toxicity in ICR mouse assessed as adverse effects at 8.19 mg/kg, iv administered into tail vein and measured twice daily over 1 week; assay type: organism-based; conditions: in vivo, 168 h, time 1 weeks
Klebsiella pneumoniae [22] = experiment: Antibacterial activity against carbapenem resistant Klebsiella pneumoniae clinical isolate 19-17 assessed as inhibition of bacterial growth incubated for 18 to 24 hrs by broth microdilution method; assay type: functional; conditions: time 18-24 hrs
Escherichia coli [23] = experiment: Antibacterial activity against Escherichia coli ATCC BAA-2523 infected in ICR mouse assessed as mouse survival at 2 mg/kg, iv administered into tail vein and measured daily for 7 days relative to control; assay type: functional; conditions: ATCC BAA-2523, 168 h, time 7 day
[24] = AUC (0 to infinity) in overnight fasted Sprague-Dawley rat at 4 mg/kg, ip measured for 24 hrs by LC-MS/MS analysis; assay type: ADME, organism-based; set-up: dose 4 mg/kg, time 24 hrs, route ip; conditions: in vivo
[25] = tested on: Staphylococcus epidermidis; experiment: Antibacterial activity against methicillin resistant Staphylococcus epidermidis clinical isolate 19-5 assessed as inhibition of bacterial growth incubated for 18 to 24 hrs by broth microdilution method; assay type: functional; conditions: time 18-24 hrs
Escherichia coli [26] = experiment: Potentiation of rifampicin induced antibacterial activity in Escherichia coli ATCC 25922 assessed as rifampicin MIC at 0.5 ug/ml incubated for 18 to 24 hrs by broth microdilution method (reference value: 2 ug/ml); assay type: functional; conditions: dose 0.5 µg/ml, time 18-24 hrs
[27] = Plasma protein binding in human at 2 uM incubated for 6 hrs by equilibrium dialysis based LC-MS/MS analysis; assay type: ADME, cell-free; conditions: read-out: PPB (converted)
Acinetobacter baumannii = experiment: Antibacterial activity against oxacillinase-27 producing Acinetobacter baumannii NCTC 13304 assessed as inhibition of bacterial growth incubated for 18 to 24 hrs by broth microdilution method; assay type: functional; conditions: time 18-24 hrs
Escherichia coli [28] = experiment: Antibacterial activity against Escherichia coli ATCC BAA-2523 assessed as inhibition of bacterial growth incubated for 18 to 24 hrs by broth microdilution method; assay type: functional; conditions: time 18-24 hrs
Escherichia coli [29] = experiment: Antibacterial activity against KPC producing Escherichia coli ATCC BAA-2340 assessed as inhibition of bacterial growth incubated for 18 to 24 hrs by broth microdilution method; assay type: functional; conditions: time 18-24 hrs
Escherichia coli [30] = experiment: Bactericidal activity against Escherichia coli ATCC BAA-2523 assessed as reduction in bacterial count at 4 times MIC measured after 2 hrs by time-kill assay; assay type: functional, organism-based
Cell membrane = experiment: Induction of outer membrane permeabilization in Escherichia coli ATCC 25922 assessed as increase in fluorescence at 1 to 16 ug/ml measured after 3 mins by NPN-dye based assay; assay type: subcellular; conditions: dose 1-16 µg/ml
Escherichia coli [31] = experiment: Potentiation of rifampicin induced antibacterial activity in Escherichia coli ATCC 25922 assessed as rifampicin MIC at 0.125 ug/ml incubated for 18 to 24 hrs by broth microdilution method (reference value: 2 ug/ml); assay type: functional; conditions: dose 0.125 µg/ml, time 18-24 hrs

`CCCCCCC[C@@H](O)CC(=O)N[C@H](CCN)C(=O)N[C@H]1CCNC(=O)[C@H]([C@@H](C)O)NC(=O)[C@H](CCN)NC(=O)[C@H](CCN)NC(=O)[C@H]([C@@H](C)O)NC(=O)[C@@H](Cc2ccccc2)NC(=O)[C@H](CCN)NC1=O` gave an MIC (Escherichia coli [1]) of 2 µg/mL (≈ 1.96 µM), an MIC (Pseudomonas aeruginosa [2]) of 0.25 µg/mL (≈ 0.245 µM) and an MIC (Escherichia coli [3]) of at most 0.06 µg/mL. For the same molecule, the LD50 at 168 h [4] was 12.4 mg/kg, the MIC (Escherichia coli [5]) was 0.125 µg/mL and the MIC (Escherichia coli [6]) was at most 0.06 µg/mL. The MIC (Escherichia coli [7]) was 1 µg/mL (≈ 0.98 µM), the Activity [8] was “Toxic” and the MIC (Pseudomonas aeruginosa [9]) was 0.5 µg/mL (≈ 0.49 µM). For the same molecule, the Activity (Escherichia coli [10]) was “Below limit of detection”, the “log(activity)” value (Escherichia coli [11]) was 0.6 and the Kd (Lipopolysaccharide (LPS)) was 480 nM. For the same molecule, the half-life [12] was 3.7 h, the MIC (Escherichia coli [13]) was at most 0.06 µg/mL and the MIC (Klebsiella pneumoniae [14]) was 4 µg/mL (≈ 3.92 µM). For the same molecule, the MIC (Escherichia coli [15]) was 4 µg/mL (≈ 3.92 µM), the MIC (Escherichia coli [16]) was at most 0.06 µg/mL and the Activity (Escherichia coli [17]) was “Active”. For the same molecule, the MIC (Staphylococcus aureus [18]) was over 64 µg/mL, the MIC (Klebsiella pneumoniae [19]) was 1 µg/mL (≈ 0.98 µM) and the MIC (Staphylococcus aureus [20]) was over 64 µg/mL. For the same molecule, the Activity [21] was “Non-Toxic”, the MIC (Klebsiella pneumoniae [22]) was 8 µg/mL (≈ 7.84 µM) and the survival at 2 mg/kg (Escherichia coli [23]) was 62.5%. It also gave an AUC(0-inf) [24] of 17600 ng·h/mL, an MIC [25] of 64 µg/mL (≈ 62.7 µM) and an MIC (Escherichia coli [26]) of at most 0.06 µg/mL. For the same molecule, the fraction unbound at 6 h, 2 µM [27] was 0.147, the MIC (Acinetobacter baumannii) was 8 µg/mL (≈ 7.84 µM) and the MIC (Escherichia coli [28]) was 0.5 µg/mL (≈ 0.49 µM). For the same molecule, the MIC (Escherichia coli [29]) was 1 µg/mL (≈ 0.98 µM), the Activity (Escherichia coli [30]) was “Active” and the Activity (Cell membrane) was “Active”. It also gave an MIC (Escherichia coli [31]) of at most 0.06 µg/mL.
